Data: US20250320250A1, “PHARMACEUTICAL COMPOSITIONS FOR THE TREATMENT OF VISCERAL PAIN” (Ironwood Pharmaceuticals, Inc., priority 2021, published 2025)

Test system: visceral hypersensitivity and bladder dysfunction
Assay: Nonclinical pharmacology models of visceral hypersensitivity and bladder dysfunction
Assay type: in vivo
Conditions: doses above 10 μg/kg/day
Procedure: The peptide of the present disclosure doses of 100 μg and 300 μg were selected based on nonclinical pharmacology models of visceral hypersensitivity and bladder dysfunction using the peptide of the present disclosure and another GC-C agonist, linaclotide, with similar activity. […] The human equivalent daily dose (HED) extrapolated from pharmacologically active dose levels in nonclinical models is 180 μg to 600 μg (based on body weight) and 15 μg to 100 μg based on body surface area. Choosing 2 doses for investigation in this study should allow for observation of a dose response.

“peptide of the present disclosure: GC-C agonist peptide, active pharmaceutical ingredient of the rectal foam composition (CXELCCNVACYGC; not fully specified; SITE 2 X is a homocysteine contributing to a cystathionine unit (linking the homocysteine at residue 2 and cysteine at residue 10 via a thioether bond); DISULFID 1..6 Intrachain; DISULFID 5..13 Intrachain; CROSSLNK 2..10 homocysteine at position 2 and the cysteine at position 10 are connected by an internal sulfide (or thioether bond); SITE 1 Optionally acetylated N-terminus)” was tested, and the “benefit at higher doses” value was “diminishing benefit”.
